Laboratory results reported in patent publication US9365506B2, “Compounds and compositions as TLR2 agonists” (NOVARTIS AG, priority 2010, dated 2016).
Values belong to the compound of their own block, whether it stands above or below them.

Target: human TLR2 (Homo sapiens, UniProt O60603)
Experiment: Reporter gene assay: HEK 293 cells stably transfected with human TLR2 and NF-kB-driven luciferase reporter
Conditions: for Emax: HEK293, 7 h, read-out: Hek-TLR2 (% Eff); for EC50: Hek-TLR2 μM (EC50), HEK 293 stably transfected with human TLR2 and pNifty-Luciferase, 7 hours incubation, concentration giving 50% of maximal signal
Procedure: As a control assay, normal Hek293 transfected with pNifty-Luc were used. […] Bright-Glo™ Luciferase assay buffer and substrate were supplied by Promega #E263B and #E264B (assay substrate and buffer respectively). 384 well clear-bottom plates were supplied by Greiner bio-one (#789163-G) and were custom bar-coded plates.
Cells were plated at 25,000 cells/well in 384-well plates in a final volume of 50 μl of media. Cells were allowed to adhere to the plates after overnight (18 hours) culture at 37° C. and 5% CO2. Serially diluted experimental and positive control compounds were then dispensed to each well and incubated for 7 hours at 37° C. and 5% CO2. Cells stimulated with DMSO alone also serve as negative controls. After the incubation, 30 μl of the pre-mix assay buffer and substrate buffer were added to each well according to manufacturer's instructions. The luminescence signal was read on a CLIPR machine with an integration time of 20 seconds per plate.

Sequence of human TLR2 (O60603 21-784): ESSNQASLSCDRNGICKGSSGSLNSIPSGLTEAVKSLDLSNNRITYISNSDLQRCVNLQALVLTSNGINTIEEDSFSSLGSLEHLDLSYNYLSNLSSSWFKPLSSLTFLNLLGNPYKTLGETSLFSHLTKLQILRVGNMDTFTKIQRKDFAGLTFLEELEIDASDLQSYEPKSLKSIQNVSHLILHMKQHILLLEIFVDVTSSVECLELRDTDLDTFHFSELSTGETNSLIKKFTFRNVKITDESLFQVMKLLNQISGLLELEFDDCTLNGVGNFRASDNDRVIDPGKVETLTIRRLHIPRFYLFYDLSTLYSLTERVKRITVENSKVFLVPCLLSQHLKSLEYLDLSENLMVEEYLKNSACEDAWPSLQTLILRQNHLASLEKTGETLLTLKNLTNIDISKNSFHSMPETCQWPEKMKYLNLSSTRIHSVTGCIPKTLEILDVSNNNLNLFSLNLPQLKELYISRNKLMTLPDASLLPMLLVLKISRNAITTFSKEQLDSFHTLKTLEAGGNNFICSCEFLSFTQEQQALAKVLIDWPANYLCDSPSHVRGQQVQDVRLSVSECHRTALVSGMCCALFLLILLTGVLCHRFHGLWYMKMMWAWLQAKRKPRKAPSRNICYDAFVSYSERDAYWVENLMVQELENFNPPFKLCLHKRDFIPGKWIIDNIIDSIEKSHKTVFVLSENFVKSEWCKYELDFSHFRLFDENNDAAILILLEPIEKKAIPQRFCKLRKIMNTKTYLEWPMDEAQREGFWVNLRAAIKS

SMILES: CCCCCCCCCCCC(=O)OC[C@H](CSC[C@H](N)C(=O)NCCOCCOCCC(F)(F)P(=O)(O)O)OC(=O)CCCCCCCCCCC [Example 4, (12R,16R)-12-amino-16-(dodecanoyloxy)-1,1-difluoro-11,19-dioxo-4,7,18-trioxa-14-thia-10-azatriacontylphosphonic acid]
Emax: 101% | EC50: 0.031 µM

SMILES: CCCCCCCCCCCC(=O)OC[C@H](CSC[C@H](N)C(=O)NCCCOCCCCOCCCN)OC(=O)CCCCCCCCCCC [Example 8, (2R,6R)-6,20-diamino-7-oxo-12,17-dioxa-4-thia-8-azaicosane-1,2-diyl didodecanoate]
Emax: 98% | EC50: 0.81 µM

SMILES: CCCCCCCCCCCC(=O)OC[C@H](CSC[C@H](N)C(=O)NCCCOCCOCCOCCCNC(=O)C(N)CS)OC(=O)CCCCCCCCCCC (stereo partly drawn) [Example 9, (20R,24R)-2,20-diamino-1-mercapto-3,19-dioxo-8,11,14-trioxa-22-thia-4,18-diazapentacosane-24,25-diyl didodecanoate]
Emax: 73% | EC50: 0.247 µM

SMILES: CCCCCCCCCCCCCCCCOC[C@H](CSC[C@H](N)C(=O)N[C@@H](CC)C(=O)N[C@H](CCC(=O)O)C(N)=O)OCCCCCCCCCCCCCCCC [Example 10, (4R,7S,10R,14R)-10-amino-4-carbamoyl-7-ethyl-14-(hexadecyloxy)-6,9-dioxo-16-oxa-12-thia-5,8-diazadotriacontan-1-oic acid]
Emax: 72% | EC50: 14.1 µM

SMILES: CCCCCCCCCCCC(=O)OC[C@H](CSC[C@H](N)C(=O)NCCc1ccc(OCCCP(=O)(O)O)cc1)OC(=O)CCCCCCCCCCC [Example 16, 3-(4-(2-((R)-2-amino-3-((R)-2,3-bis(dodecanoyloxy)propylthio)propanamido)ethyl)phenoxy)propylphosphonic acid]
Emax: 107% | EC50: 0.41 µM

SMILES: CCCCCCCCCCCCOC[C@H](CSC[C@H](N)C(=O)NCCOCCOCCOCCP(=O)(O)O)OC(=O)CCCCCCCCCCC [Example 27, ((14R,18R)-14-amino-18-(dodecanoyloxy)-13-oxo-3,6,9,20-tetraoxa-16-thia-12-azadotriacontyl)phosphonic acid]
Emax: 77% | EC50: 0.61 µM

SMILES: CCCCCCCCCCCCOC[C@H](CSC[C@H](N)C(=O)N[C@@H](C)COCCOCCOCCP(=O)(O)O)OCCCCCCCCCCCC [Example 29, ((11S,14R,18R)-14-amino-18-(dodecyloxy)-11-methyl-13-oxo-3,6,9,20-tetraoxa-16-thia-12-azadotriacontyl)phosphonic acid]
Emax: 74% | EC50: 1.85 µM

SMILES: CCCCCCCCCCCCOC[C@H](CSC[C@H](N)C(=O)NCCOCCOCCOCCC(=O)O)OCCCCCCCCCCCC [Example 32, (15R,19R)-15-amino-19-(dodecyloxy)-14-oxo-4,7,10,21-tetraoxa-17-thia-13-azatritriacontan-1-oic acid]
Emax: 78% | EC50: 9.13 µM

SMILES: CCCCCCCCCCCCOC[C@H](CSC[C@H](N)C(=O)NCCOCCOCCC(F)(F)P(=O)(O)O)NC(=O)CCCCCCCCCCC [Example 35, (12R,16R)-12-amino-16-dodecanamido-1,1-difluoro-11-oxo-4,7,18-trioxa-14-thia-10-azatriacontylphosphonic acid]
Emax: 15% | EC50: 0.77 µM

SMILES: CCCCCCCCCCNC(=O)OC[C@H](CSC[C@H](N)C(=O)NCCOCCOCCOCCC(=O)O)OC(=O)NCCCCCCCCCC [Example 37, (15R,19R)-15-amino-19-(decylcarbamoyloxy)-14,22-dioxo-4,7,10,21-tetraoxa-17-thia-13,23-diazatritriacontan-1-oic acid]
Emax: 7% | EC50: 6.21 µM

SMILES: CCCCCCCCNC(=O)OC[C@H](CSC[C@H](N)C(=O)NCCOCCOCCOCCP(=O)(O)O)OC(=O)NCCCCCCCC [Example 38, (14R,18R)-14-amino-18-(octylcarbamoyloxy)-13,21-dioxo-3,6,9,20-tetraoxa-16-thia-12,22-diazatriacontylphosphonic acid]
Emax: 107% | EC50: 7.03 µM

The remaining lines, values ahead:

Emax: 113% | EC50: 1.22 µM
SMILES: CCCCCCCCCCCC(=O)OC[C@H](CSC[C@H](N)C(=O)NCCCCCN)OC(=O)CCCCCCCCCCC [Example 7, (R)-3-((R)-2-amino-3-(5-aminopentylamino)-3-oxopropylthio)propane-1,2-diyl didodecanoate]

Emax: 3.6% | EC50: > 100 µM
SMILES: CCCCCCCCCCCCCCCCOC[C@H](CSC[C@H](N)C(=O)NC1(CO)CC1)NC(=O)CCCCCCCCCCC [Example 11, N—((R)-1-((R)-2-amino-3-(1-(hydroxymethyl)cyclopropylamino)-3-oxopropylthio)-3-(hexadecyloxy)propan-2-yl)dodecanamide]

Emax: 3.5% | EC50: > 100 µM
SMILES: CCCCCCCCCCCC(=O)NC[C@H](CSC[C@H](N)C(=O)NC1(CO)CC1)NC(=O)CCCCCCCCCCC [Example 12, N,N′—((R)-3-((R)-2-amino-3-(1-(hydroxymethyl)cyclopropylamino)-3-oxopropylthio)propane-1,2-diyl)didodecanamide]

Emax: 118% | EC50: 6.5 µM
SMILES: CCCCCCCCCCCC(=O)OC[C@H](CSC[C@H](N)C(=O)N[C@@H](CC)COCC(=O)O)OC(=O)CCCCCCCCCCC [Example 13, (5S,8R,12R)-8-amino-12-(dodecanoyloxy)-5-ethyl-7,15-dioxo-3,14-dioxa-10-thia-6-azahexacosan-1-oic acid]

Emax: 153% | EC50: 0.0192 µM
SMILES: CCCCCCCCCCCC(=O)OC[C@H](CSC[C@H](N)C(=O)N[C@@H](C)COCCCP(=O)(O)O)OC(=O)CCCCCCCCCCC [Example 14, (6S,9R,13R)-9-amino-13-(dodecanoyloxy)-6-methyl-8,16-dioxo-4,15-dioxa-11-thia-7-azaheptacosylphosphonic acid]

Emax: 122% | EC50: 0.014 µM
SMILES: CCCCCCCCCCCC(=O)OC[C@H](CSC[C@H](N)C(=O)NCCOCCC(F)(F)P(=O)(O)O)OC(=O)CCCCCCCCCCC [Example 21, (9R,13R)-9-amino-13-(dodecanoyloxy)-1,1-difluoro-8,16-dioxo-4,15-dioxa-11-thia-7-azaheptacosylphosphonic acid]

Emax: 60% | EC50: 2.45 µM
SMILES: CCCCCCCCCCCCOC[C@H](CSC[C@H](N)C(=O)NCCOCCOCCC(F)(F)P(=O)(O)O)OCCCCCCCCCCCC [Example 22, (12R,16R)-12-amino-16-(dodecyloxy)-1,1-difluoro-11-oxo-4,7,18-trioxa-14-thia-10-azatriacontylphosphonic acid]

Emax: 73% | EC50: 3.04 µM
SMILES: CCCCCCCC(=O)OC[C@H](CSC[C@H](N)C(=O)NCCOCCOCCOCCP(=O)(O)O)OC(=O)CCCCCCC [Example 23, (14R,18R)-14-amino-18-(octanoyloxy)-13,21-dioxo-3,6,9,20-tetraoxa-16-thia-12-azaoctacosylphosphonic acid]

Emax: 99% | EC50: 0.0063 µM
SMILES: CCCCCCCCCCCCCC(=O)OC[C@H](CSC[C@H](N)C(=O)NCCOCCOCCOCCP(=O)(O)O)OC(=O)CCCCCCCCCCCCC [Example 25, (14R,18R)-14-amino-13,21-dioxo-18-(tetradecanoyloxy)-3,6,9,20-tetraoxa-16-thia-12-azatetratriacontylphosphonic acid]

Emax: 37% | EC50: 0.99 µM
SMILES: CCCCCCCCCCCCOC[C@H](CSC[C@H](N)C(=O)N[C@@H](C)COCCOCCOCCP(=O)(O)O)NC(=O)CCCCCCCCCCC [Example 28, ((11S,14R,18R)-14-amino-18-dodecanamido-11-methyl-13-oxo-3,6,9,20-tetraoxa-16-thia-12-azadotriacontyl)phosphonic acid]

Emax: 59% | EC50: 0.92 µM
SMILES: CCCCCCCCCCCCOC[C@H](CSC[C@H](N)C(=O)N[C@@H](C)C(=O)NCCOCCOCCP(=O)(O)O)OCCCCCCCCCCCC [Example 30, ((11S,14R,18R)-14-amino-18-(dodecyloxy)-11-methyl-10,13-dioxo-3,6,20-trioxa-16-thia-9,12-diazadotriacontyl)phosphonic acid]

Emax: 35% | EC50: 2.91 µM
SMILES: CCCCCCCCCCCCOC[C@H](CSC[C@H](N)C(=O)N[C@@H](C)C(=O)NCCOCCOCCP(=O)(O)O)NC(=O)CCCCCCCCCCC [Example 31, ((11S,14R,18R)-14-amino-18-dodecanamido-11-methyl-10,13-dioxo-3,6,20-trioxa-16-thia-9,12-diazadotriacontyl)phosphonic acid]

Emax: 48% | EC50: 3.85 µM
SMILES: CCCCCCCCCCCCOC[C@H](CSC[C@H](N)C(=O)NCCOCCOCCOCCC(=O)O)NC(=O)CCCCCCCCCCC [Example 33, (15R,19R)-15-amino-19-dodecanamido-14-oxo-4,7,10,21-tetraoxa-17-thia-13-azatritriacontan-1-oic acid]

Emax: 47% | EC50: > 100 µM
SMILES: CCCCCCCCCCCCCCCC(=O)N[C@@H](CSC[C@@H](COC(=O)CCCCCCCCCCC)OC(=O)CCCCCCCCCCC)C(=O)NCCOCCOCCOCCP(=O)(O)O [Example 34, ((14R,18R)-18-(dodecanoyloxy)-13,21-dioxo-14-palmitamido-3,6,9,20-tetraoxa-16-thia-12-azadotriacontyl)phosphonic acid]

Hek-TLR2 (% Eff) (% Eff relative to Pam3CSK4, HEK 293 human TLR2 NF-kB luciferase): (76%) | EC50: 0.822 µM
SMILES: CCCCCCCCCCNC(=O)OC[C@H](CSC[C@H](N)C(=O)NCCOCCOCCOCCP(=O)(O)O)OC(=O)NCCCCCCCCCC [Example 36, (14R,18R)-14-amino-18-(decylcarbamoyloxy)-13,21-dioxo-3,6,9,20-tetraoxa-16-thia-12,22-diazadotriacontylphosphonic acid]

Emax: 92% | EC50: 2.64 µM
SMILES: CCCCCCCCCCCCCCCC(=O)N[C@@H](CSC[C@@H](COC(=O)NCCCCCCCCCC)OC(=O)NCCCCCCCCCC)C(=O)NCCOCCOCCOCCP(=O)(O)O [Example 39, (14R,18R)-18-(decylcarbamoyloxy)-13,21-dioxo-14-palmitamido-3,6,9,20-tetraoxa-16-thia-12,22-diazadotriacontylphosphonic acid]
